Laboratory results reported in patent US20260271931A1, “HERBICIDAL MIXTURES” (Bayer Aktiengesellschaft, priority 2023, published 2026).
Read-outs that look alike come from different tables or passages of the source.

Tests used:
Format in all cases: in vivo
Centaurea cyanus (CENCY) [1] = test: Post-emergence action against weeds, greenhouse pot test, visual rating: Centaurea cyanus
Description: (§1) When the observed efficacies already exceed the formal sum total of the values of the tests with individual applications, they also exceed the expected value according to Colby, which is calculated using the formula below and is likewise regarded as an indication of synergism (cf. S. R. Colby; in Weeds 15 (1967) pp. 20 to 22):
(§2) where: • A=efficacy of the active ingredient (A) in % at an application rate of a [g a.i./ha]; • B=efficacy of the active ingredient (B) in % at an application rate of b [g a.i./ha]; • E^C=expected value of the effect of the combination (A)+(B) in % at the combined application rate a+b [g a.i./ha].
(§3) The observed values (E^A) from the experiments, given suitable low dosages, show an effect of the combinations exceeding the expected values according to Colby (E^C) (Δ).
(§4) Seeds of mono- and dicotyledonous weeds were placed in sandy loam in pots, covered with soil and grown in a greenhouse under good growth conditions (temperature, air humidity, water supply). Two to three weeks after sowing, the test plants were treated at the two- to four-leaf stage with the compositions of the invention. The compositions of the invention, formulated as spray powders or as emulsion concentrates, were sprayed onto the green parts of the plant in various dosages with an application rate equivalent to […] of water. After the test plants had been kept in the greenhouse under optimum growth conditions for 3 weeks, the activity of the preparations was rated visually in comparison to untreated controls.
(§5) 100% efficacy means complete control of the particular weed tested.
(§6) 0% efficacy means zero control of the particular weed tested.
(§7) Expected values according to Colby are reported under E.
(§8) The exceedance of the expected value E is given as Δ (=synergistic effect).
(§9) The rating period is reported in days after application (DAT).

Lolium rigidum (LOLRI) = test: Post-emergence action against weeds, greenhouse pot test, visual rating: Lolium rigidum
Centaurea cyanus (CENCY) [2] = test: Post-emergence action against weeds, greenhouse pot test, visual rating: Centaurea cyanus; conditions: 240 h, read-out: Herbicidal effect [%] on CENCY 10 DAT
Eleusine indica (ELEIN) = test: Post-emergence action against weeds, greenhouse pot test, visual rating: Eleusine indica; conditions: Eleusine indica, post-emergence; for pest or weed control at 0.4 g/ha: 0.4 g a.i./ha; for pest or weed control at 3 g/ha: 3 g a.i./ha
Description: as §1, §2, §3, §4, §5, §6, §7, §8, §9

Bidens pilosa (BIDPI) = test: Post-emergence action against weeds, greenhouse pot test, visual rating: Bidens pilosa
[3] = system: Brachiaria platyfylla (BRAPP); test: Post-emergence action against weeds, greenhouse pot test, visual rating: Brachiaria platyfylla; conditions: post-emergence; for pest or weed control at 0.4 g/ha: 0.4 g a.i./ha; for pest or weed control at 3 g/ha: 3 g a.i./ha
Description: as §1, §2, §3, §4, §5, §6, §7, §8, §9

Kochia scoparia (KCHSC) = test: Post-emergence action against weeds, greenhouse pot test, visual rating: Kochia scoparia
[4] = system: Echinochloa crus-galli (ECHCG); test: Post-emergence action against weeds, greenhouse pot test, visual rating: Echinochloa crus-galli; conditions: 1 g a.i./ha
[5] = system: Sorghum halepense (SORHA); test: Post-emergence action against weeds, greenhouse pot test, visual rating: Sorghum halepense
Description: as §1, §2, §3, §4, §5, §6, §7, §8, §9

Avena fatua (AVEFA) = test: Post-emergence action against weeds, greenhouse pot test, visual rating: Avena fatua
[6] = system: Pharbitis purpurea (PHBPU); test: Post-emergence action against weeds, greenhouse pot test, visual rating: Pharbitis purpurea
Description: as §1, §2, §3, §4, §5, §6, §7, §8, §9

[7] = 240 h, read-out: Herbicidal effect [%] on ELEIN 10 DAT
[8] = 504 h, read-out: Herbicidal effect [%] on ELEIN 21 DAT
[9] = 240 h, read-out: Herbicidal effect [%] on BRAPP 10 DAT
[10] = 504 h, read-out: Herbicidal effect [%] on BRAPP 21 DAT

CS(=O)(=O)NC(=O)c1cc(Oc2ccc(C(F)(F)F)cc2Cl)ccc1[N+](=O)[O-] [Fomesafen, fomesafen]
Herbicidal effect [%] on CENCY 21 DAT (Centaurea cyanus (CENCY) [1]; 1.5 g a.i./ha): 30%
pest or weed control at […] (Lolium rigidum (LOLRI); Lolium rigidum, 504 h, 1.5 g a.i./ha, 21 DAT, read-out: Herbicidal effect [%] on LOLRI 21 DAT): 0%
pest or weed control at […] (Centaurea cyanus (CENCY) [2]; 1.5 g a.i./ha): 20%
pest or weed control at […] (Eleusine indica (ELEIN); 504 h, 1.5 g a.i./ha, read-out: Herbicidal effect [%] on ELEIN 21 DAT): 0%
Herbicidal effect [%] on BIDPI 10 DAT (Bidens pilosa (BIDPI); 1.5 g a.i./ha): 30%
Herbicidal effect [%] on BIDPI 21 DAT (Bidens pilosa (BIDPI); 1.5 g a.i./ha): 20%
pest or weed control at […] ([3]; 504 h, 1.5 g a.i./ha, read-out: Herbicidal effect [%] on BRAPP 21 DAT): 0%
Herbicidal effect [%] on KCHSC 10 DAT (Kochia scoparia (KCHSC); 1.5 g a.i./ha): 10%
pest or weed control at […] (Kochia scoparia (KCHSC); Bassia scoparia, post-emergence, 504 h, 1.5 g a.i./ha, read-out: Herbicidal effect [%] on KCHSC 21 DAT): 0%

COc1cc(OC)nc(NC(=O)NS(=O)(=O)c2cc(NC=O)ccc2C(=O)N(C)C)n1 [Foramsulfuron, foramsulfuron]
Herbicidal effect [%] on ECHCG 10 DAT [4]: 70%
pest or weed control at 1 g/ha (Centaurea cyanus (CENCY) [2]; 1 g a.i./ha): 30%
Herbicidal effect [%] on BIDPI 10 DAT (Bidens pilosa (BIDPI); 1 g a.i./ha): 20%
Herbicidal effect [%] on BIDPI 21 DAT (Bidens pilosa (BIDPI); 1 g a.i./ha): 30%
pest or weed control at 1 g/ha (Kochia scoparia (KCHSC); Bassia scoparia, post-emergence, 504 h, 1 g a.i./ha, read-out: Herbicidal effect [%] on KCHSC 21 DAT): 20%
Herbicidal effect [%] on SORHA 21 DAT ([5]; 1 g a.i./ha): 20%
Herbicidal effect [%] on AVEFA 21 DAT (Avena fatua (AVEFA); 21 DAT, 1 g a.i./ha): 70%
pest or weed control at 1 g/ha (Avena fatua (AVEFA); Avena fatua, 240 h, 10 DAT, 1 g a.i./ha, read-out: Herbicidal effect [%] on AVEFA 10 DAT): 60%

CSc1nnc(C(C)(C)C)c(=O)n1N [Metribuzin, metribuzin]
pest or weed control at 15 g/ha (Lolium rigidum (LOLRI); Lolium rigidum, 504 h, 15 g a.i./ha, 21 DAT, read-out: Herbicidal effect [%] on LOLRI 21 DAT): 0%
pest or weed control at 15 g/ha (Centaurea cyanus (CENCY) [2]; 15 g a.i./ha): 0%
pest or weed control at 15 g/ha (Eleusine indica (ELEIN); 504 h, 15 g a.i./ha, read-out: Herbicidal effect [%] on ELEIN 21 DAT): 10%
Herbicidal effect [%] on PHBPU 10 DAT ([6]; 15 g a.i./ha): 0%

N#Cc1cc(Br)c(O)c(Br)c1 [Bromoxynil, bromoxynil]
pest or weed control at 80 g/ha (Centaurea cyanus (CENCY) [2]; 80 g a.i./ha): 30%
pest or weed control at 80 g/ha (Eleusine indica (ELEIN); 240 h, 80 g a.i./ha, read-out: Herbicidal effect [%] on ELEIN 10 DAT): 0%
Herbicidal effect [%] on BIDPI 10 DAT (Bidens pilosa (BIDPI); 80 g a.i./ha): 50%
Herbicidal effect [%] on PHBPU 10 DAT ([6]; 80 g a.i./ha): 50%
pest or weed control at 80 g/ha (Avena fatua (AVEFA); Avena fatua, 240 h, 10 DAT, 80 g a.i./ha, read-out: Herbicidal effect [%] on AVEFA 10 DAT): 0%

CC(C)N(C)S(=O)(=O)NC(=O)c1cc(-n2c(=O)cc(C(F)(F)F)n(C)c2=O)c(F)cc1Cl [Saflufenacil, saflufenacil]
Herbicidal effect [%] on CENCY 21 DAT (Centaurea cyanus (CENCY) [1]; 0.4 g a.i./ha): 30%
Herbicidal effect [%] on LOLRI 10 DAT (Lolium rigidum (LOLRI); 0.4 g a.i./ha, 10 DAT): 10%
pest or weed control at 0.4 g/ha (Lolium rigidum (LOLRI); Lolium rigidum, 504 h, 0.4 g a.i./ha, 21 DAT, read-out: Herbicidal effect [%] on LOLRI 21 DAT): 0%
pest or weed control at 0.4 g/ha (Centaurea cyanus (CENCY) [2]; 0.4 g a.i./ha): 40%
pest or weed control at 0.4 g/ha (Eleusine indica (ELEIN); [7]): 30%
pest or weed control at 0.4 g/ha (Eleusine indica (ELEIN); [8]): 0%
pest or weed control at 0.4 g/ha [3, 9]: 10%
pest or weed control at 0.4 g/ha [3, 10]: 0%
Herbicidal effect [%] on KCHSC 10 DAT (Kochia scoparia (KCHSC); 0.4 g a.i./ha): 10%
pest or weed control at 0.4 g/ha (Kochia scoparia (KCHSC); Bassia scoparia, post-emergence, 504 h, 0.4 g a.i./ha, read-out: Herbicidal effect [%] on KCHSC 21 DAT): 10%
Herbicidal effect [%] on PHBPU 21 DAT ([6]; 0.4 g a.i./ha): 80%
pest or weed control at 0.4 g/ha (Avena fatua (AVEFA); Avena fatua, 240 h, 10 DAT, 0.4 g a.i./ha, read-out: Herbicidal effect [%] on AVEFA 10 DAT): 10%

CS(=O)(=O)c1ccc(C(=O)C2C(=O)CCCC2=O)c(Cl)c1COCC(F)(F)F [Tembotrione, tembotrione]
Herbicidal effect [%] on CENCY 21 DAT (Centaurea cyanus (CENCY) [1]; 3 g a.i./ha): 30%
pest or weed control at 3 g/ha (Lolium rigidum (LOLRI); Lolium rigidum, 504 h, 3 g a.i./ha, 21 DAT, read-out: Herbicidal effect [%] on LOLRI 21 DAT): 20%
pest or weed control at 3 g/ha (Centaurea cyanus (CENCY) [2]; 3 g a.i./ha): 40%
pest or weed control at 3 g/ha (Eleusine indica (ELEIN); [7]): 60%
pest or weed control at 3 g/ha (Eleusine indica (ELEIN); [8]): 40%
Herbicidal effect [%] on BIDPI 21 DAT (Bidens pilosa (BIDPI); 3 g a.i./ha): 30%
pest or weed control at 3 g/ha [3, 9]: 40%
pest or weed control at 3 g/ha [3, 10]: 20%
Herbicidal effect [%] on KCHSC 10 DAT (Kochia scoparia (KCHSC); 3 g a.i./ha): 20%
pest or weed control at 3 g/ha (Kochia scoparia (KCHSC); Bassia scoparia, post-emergence, 504 h, 3 g a.i./ha, read-out: Herbicidal effect [%] on KCHSC 21 DAT): 10%
Herbicidal effect [%] on SORHA 10 DAT ([5]; 3 g a.i./ha, 10 DAT): 80%
Herbicidal effect [%] on SORHA 21 DAT ([5]; 3 g a.i./ha): 20%
Herbicidal effect [%] on PHBPU 21 DAT ([6]; 3 g a.i./ha): 30%

CCC(CC)Nc1c([N+](=O)[O-])cc(C)c(C)c1[N+](=O)[O-] [Pendimethalin, pendimethalin]
pest or weed control at 100 g/ha (Centaurea cyanus (CENCY) [2]; 100 g a.i./ha): 0%
pest or weed control at 100 g/ha (Eleusine indica (ELEIN); 504 h, 100 g a.i./ha, read-out: Herbicidal effect [%] on ELEIN 21 DAT): 0%
pest or weed control at 100 g/ha (Kochia scoparia (KCHSC); Bassia scoparia, post-emergence, 504 h, 100 g a.i./ha, read-out: Herbicidal effect [%] on KCHSC 21 DAT): 10%

CCOC(=O)COc1cc(-c2nn(C)c(OC(F)F)c2Cl)c(F)cc1Cl [Pyraflufen-ethyl, pyraflufen-ethyl]
Herbicidal effect [%] on CENCY 21 DAT (Centaurea cyanus (CENCY) [1]; 7.5 g a.i./ha): 88%
pest or weed control at […] (Centaurea cyanus (CENCY) [2]): 88%
pest or weed control at […] (Eleusine indica (ELEIN); [8]): 0%
Herbicidal effect [%] on BIDPI 10 DAT (Bidens pilosa (BIDPI); 7.5 g a.i./ha): 88%
Herbicidal effect [%] on BIDPI 21 DAT (Bidens pilosa (BIDPI); 7.5 g a.i./ha): 80%
Herbicidal effect [%] on SORHA 21 DAT ([5]; 7.5 g a.i./ha): 10%
